# Reference: US11685744B2, “CDK inhibitors and their use as pharmaceuticals” (Prelude Therapeutics, Incorporated, priority 2020, dated 2023)
# pIC50: −log10 of the molar value.
# Experiments:
# CDK4/Cyclin D1 = CDK4/Cyclin D1 (Homo sapiens (Human), UniProt P11802); experiment: CDK4/CyclinD1 enzymatic activity assay (TR-FRET); assay type: biochemical; conditions: ATP 2 mM, read-out: CDK4_D1 IC50
# Procedure: CDK4/CyclinD1 Enzymatic Activity Assay
# The inhibitory activity of compounds was evaluated in vitro using TR-FRET assay with white 384-well low volume microplate (Greiner Bio-One). CDK4/Cyclin D1 catalyzed phosphorylation of peptide in the presence and absence of compounds was measured. IC50 determination. Recombinant protein complex CDK4/Cyclin D1, expressed from insect cell, was purchased from ProQinase. Testing compounds were dissolved in DMSO at 0.1 mM and tested in 9-dose IC50 mode. The reaction mixture was prepared by mixing CDK4/CyclinD1 (1 nM final), ULight-4E-BP1 (100 nM final, Perkinelmer, TRF0128-D), and ATP (2 mM final) in assay buffer (20 mM of HEPES pH 7.4, 1 mM of EGTA, 0.05% BSA, 0.005% Tween 20, and 1 mM TCEP). The compound of interest in DMSO was added to each well in 3-fold serial dilution by dispenser (TECAN D300E). After 20 minutes preincubation at room temperature, MgCl2 (10 mM final) was added to initiate the reaction. Following a 60 minutes incubation at 37° C., the reaction was stopped by addition of 2 μL of quenching buffer consisting of Lance detection buffer (Perkinelmer CR97-100C), 2 nM LANCE Ultra Europium-anti-P-4E-BP1 (Perkinelmer, TRF0216-D), 10 mM EDTA, and incubate at room temperature for additional 60 minutes in dark. The reaction signal was measured by Envision multimode plate reader (PerkinElmer, 2102-0010). IC50 values were determined by fitting the data to the standard 4 parameters with Hill Slope using GraphPad Prism software.
# [1] = test system: MCF7 adenocarcinoma cell line; experiment: Cell proliferation studies in MCF7 cells (ATP-Lite, 10 days); assay type: cell-based; conditions: Homo sapiens, 240 h, read-out: PROLIFERATION_CTG_MCF7 IC50
# Procedure: Cell Proliferation Studies in MCF7 Cells
# Cell proliferation studies were conducted in MCF7 adenocarcinoma cell line. Cells were maintained in DMEM (Coming, Catalog #: 10-013-CV) supplemented with 10% v/v FBS (Gibco, Catalog #: 26140-079), 1% v/v Penicillin Streptomycin (Gibco, Catalog #15140-122) Cells were seeded in 384-well plates at a density of 100 or 200 cells/well. Compounds dissolved in DMSO were plated in quadruplicate using a digital dispenser (D300E, Tecan) and tested on a 9-point 3-fold serial dilution. Cells were incubated for 10 days in a 37° C. active humidified incubator at 5% CO2. A media exchange and second compound addition were performed on day 5. Cell viability was measured using the ATP-Lite 1-Step Luminescence reagent (Perkin Elmer, Catalog #: 6016731) as per manufacturer's instructions. Luminescence signal was measured with a multimode plate reader (Envision 2105, Perkin Elmer). Raw data files were imported to Dotmatics Screening Ultra for IC50 analysis. Luminescence values were normalized to both background and DMSO controls to obtain a percentage of viable cells relative to DMSO vehicle control.
# CDK4/Cyclin D1, sequence (P11802 whole entry): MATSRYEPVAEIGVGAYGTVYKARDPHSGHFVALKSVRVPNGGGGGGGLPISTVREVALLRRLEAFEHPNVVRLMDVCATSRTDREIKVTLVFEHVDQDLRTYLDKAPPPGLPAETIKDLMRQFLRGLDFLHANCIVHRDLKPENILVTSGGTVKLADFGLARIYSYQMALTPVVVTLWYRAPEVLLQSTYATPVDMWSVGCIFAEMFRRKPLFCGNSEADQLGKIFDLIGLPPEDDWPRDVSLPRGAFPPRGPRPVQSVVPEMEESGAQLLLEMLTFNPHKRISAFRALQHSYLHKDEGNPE
# CDK4/Cyclin D1, sequence (P24385 whole entry partner): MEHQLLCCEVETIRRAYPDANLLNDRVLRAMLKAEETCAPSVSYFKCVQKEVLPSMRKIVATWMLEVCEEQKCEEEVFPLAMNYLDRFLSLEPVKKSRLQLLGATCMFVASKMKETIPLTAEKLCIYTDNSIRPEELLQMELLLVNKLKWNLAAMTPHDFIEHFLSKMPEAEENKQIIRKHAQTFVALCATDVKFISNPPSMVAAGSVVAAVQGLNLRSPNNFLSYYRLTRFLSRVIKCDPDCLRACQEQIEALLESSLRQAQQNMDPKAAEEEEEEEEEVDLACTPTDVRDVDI
SMILES,pIC50 (CDK4/Cyclin D1),pIC50 [1]
"CCN1CCC(c2ccc(Nc3ncc(F)c(-c4sc5c(nc(C)n5C5CCCC5)c4C)n3)nc2)CC1 [Example 5, 4-(3-Cyclopentyl-2,6-dimethyl-3H-thieno[2,3-d]imidazol-5-yl)-N-(5-(1-ethylpiperidin-4-yl)pyridin-2-yl)-5-fluoro-pyrimidin-2-amine]",6.70 to 7.70,6.70 to 7.70
"Cc1c(-c2nc(Nc3ccc(N4CCN(C)CC4)cn3)ncc2F)sc2c1nc(C)n2C1CCCC1 [Example 7, 4-(3-Cyclopentyl-2,6-dimethyl-3H-thieno[2,3-d]imidazol-5-yl)-5-fluoro-N-(5-(4-methyl-piperazin-1-yl)pyridin-2-yl)pyrimidin-2-amine]",≥ 7.70,6.70 to 7.70
"CCN1CCN(Cc2ccc(Nc3ncc(F)c(-c4sc5c(nc(C)n5C5CCC5)c4C)n3)nc2)CC1 [Example 10, 4-(3-Cyclobutyl-2,6-dimethylthieno[2,3-d]imidazol-5-yl)-N-[5-[(4-ethylpiperazin-1-yl)methyl]pyridin-2-yl]-5-fluoropyrimidin-2-amine]",≥ 7.70,5.70 to 6.70
"Cc1c(-c2nc(Nc3ccc(N4CCC(F)(F)C4)cn3)ncc2F)sc2c1nc(C)n2C1CCCC1 [Example 11, 4-(3-Cyclopentyl-2,6-dimethyl-3H-thieno[2,3-d]imidazol-5-yl)-N-(5-(3,3-difluoropyrrolidin-1-yl)pyridin-2-yl)-5-fluoro-pyrimidin-2-amine]",6.70 to 7.70,5.70 to 6.70
"CCN1CCN(Cc2ccc(Nc3ncc(F)c(-c4sc5c(nc(C)n5C5CCCC5)c4C)n3)nc2)CC1 [Example 12, 4-(3-Cyclopentyl-2,6-dimethyl-3H-thieno[2,3-d]imidazol-5-yl)-N-(5-((4-ethylpiperazin-1-yl)methyl)pyridin-2-yl)-5-fluoropyrimidin-2-amine]",5.70 to 6.70,–
"CCN1CC2(C1)CN(c1ccc(Nc3ncc(F)c(-c4cc5nccc(C6CCCC6)c5s4)n3)nc1)C2 [Example 15, 4-(7-Cyclopentylthieno[3,2-b]pyridin-2-yl)-N-[5-(6-ethyl-2,6-diazaspiro[3.3]heptan-2-yl)pyridin-2-yl]-5-fluoropyrimidin-2-amine]",≥ 7.70,–
"Cc1c(-c2nc(Nc3ccc(N4CCNCC4)cn3)ncc2F)sc2c(C3CCCC3)ccnc12 [Example 35, 4-(7-Cyclopentyl-3-methylthieno[3,2-b]pyridin-2-yl)-5-fluoro-N-(5-(piperazin-1-yl)pyridin-2-yl)pyrimidin-2-amine]",≥ 7.70,–
"CCN1CC2(C1)CN(c1ccc(Nc3ncc(F)c(-c4sc5c(C6CC6)n(C)nc5c4C)n3)nc1)C2 [Example 101, 4-(3-Cyclopropyl-2,6-dimethyl-2H-thieno[3,2-c]pyrazol-5-yl)-N-(5-(6-ethyl-2,6-diazaspiro[3.3]heptan-2-yl)pyridin-2-yl)-5-fluoropyrimidin-2-amine]",6.70 to 7.70,–
"CCN1CCN(c2ccc(Nc3ncc(F)c(-c4sc5c(C(C)=O)n(C)nc5c4C)n3)nc2)CC1 [Example 103, 1-(5-(2-((5-(4-ethylpiperazin-1-yl)pyridin-2-yl)amino)-5-fluoropyrimidin-4-yl)-2,6-dimethyl-2H-thieno[3,2-c]pyrazol-3-yl)ethan-1-one]",5.70 to 6.70,–
"CCN1CCN(c2ccc(Nc3ncc(F)c(-c4sc5c(C(C)C)ccnc5c4C#N)n3)nc2)CC1 [Example 122, 2-(2-((5-(4-Ethylpiperazin-1-yl)pyridin-2-yl)amino)-5-fluoropyrimidin-4-yl)-7-isopropylthieno[3,2-b]pyridine-3-carbonitrile]",6.70 to 7.70,–

# Second part, the molecule after the results:
pIC50 (CDK4/Cyclin D1),pIC50 [1],SMILES
≥ 7.70,5.70 to 6.70,"Cc1c(-c2nc(Nc3ccc(C4CC[C@H]5CN(C)C(=O)CN45)cn3)ncc2F)sc2c1nc(C)n2C(C)C (single isomer, unassigned) [Example 118]"
≥ 7.70,6.70 to 7.70,"Cc1c(-c2nc(Nc3ccc(C4CCN(C)CC4)cn3)ncc2F)sc2c1nc(C)n2C1CCCC1 [Example 6, 4-(3-Cyclopentyl-2,6-dimethyl-3H-thieno[2,3-d]imidazol-5-yl)-5-fluoro-N-(5-(1-methylpiperidin-4-yl)pyridin-2-yl)pyrimidin-2-amine]"
6.70 to 7.70,–,"Cc1nc2cc(-c3nc(Nc4ccc(CN5CCC(C(=O)N(C)C)C5)cn4)ncc3F)sc2n1C(C)C (stereo not drawn) [Example 65, 1-[[6-[[5-Fluoro-4-(2-methyl-3-propan-2-ylthieno[2,3-d]imidazol-5-yl)pyrimidin-2-yl]amino]pyridin-3-yl]methyl]-N,N-dimethylpyrrolidine-3-carboxamide]"
≥ 7.70,–,"Cc1c(-c2nc(Nc3ccc(N4CC5(CN(C)CC5(F)F)C4)cn3)ncc2F)sc2c1nc(C)n2C(C)C [Example 70, N-[5-(5,5-Difluoro-7-methyl-2,7-diazaspiro[3.4]octan-2-yl)pyridin-2-yl]-4-(2,6-dimethyl-3-propan-2-ylthieno[2,3-d]imidazol-5-yl)-5-fluoropyrimidin-2-amine]"
≥ 7.70,–,"Cc1c(-c2nc(Nc3ccc(N4CCC5(CCN(C)C5)C4)cn3)ncc2F)sc2c(C(C)C)cn(C)c(=O)c12 (stereo not drawn) [Example 76, 2-(5-Fluoro-2-((5-(7-methyl-2,7-diazaspiro[4.4]nonan-2-yl)pyridin-2-yl)amino)pyrimidin-4-yl)-7-isopropyl-3,5-dimethylthieno[3,2-c]pyridin-4(5H)-one]"
6.70 to 7.70,–,"CCN1CCN(c2ccc(Nc3ncc(F)c(-c4sc5c(C(C)O)n(C)nc5c4C)n3)nc2)CC1 (stereo not drawn) [Example 104, 1-(5-(2-((5-(4-Ethylpiperazin-1-yl)pyridin-2-yl)amino)-5-fluoropyrimidin-4-yl)-2,6-dimethyl-2H-thieno[3,2-c]pyrazol-3-yl)ethan-1-ol]"
5.70 to 6.70,–,"CCN1CCN(c2ccc(Nc3ncc(F)c(-c4sc5c(C(C)C)nn(C)c5c4C)n3)nc2)CC1 [Example 106, 4-(1,6-Dimethyl-3-propan-2-ylthieno[3,2-c]pyrazol-5-yl)-N-[5-(4-ethylpiperazin-1-yl)pyridin-2-yl]-5-fluoropyrimidin-2-amine]"
6.70 to 7.70,–,"Cc1nc2cc(-c3nc(Nc4cccnn4)ncc3F)sc2n1C(C)C [Example 107, N-(5-Fluoro-4-(3-isopropyl-2-methyl-3H-thieno[2,3-d]imidazol-5-yl)pyrimidin-2-yl)pyridazin-3-amine]"
5.70 to 6.70,–,"CN1CCC(c2ccc(Nc3ncc(F)c(-c4cc5c(=O)n(C)nc(C67CC(F)(C6)C7)c5s4)n3)nc2)CC1 [Example 110, 2-(5-Fluoro-2-((5-(1-methylpiperidin-4-yl)pyridin-2-yl)amino)pyrimidin-4-yl)-7-(3-fluorobicyclo[1.1.1]pentan-1-yl)-5-methylthieno[2,3-d]pyridazin-4(5H)-one]"
5.70 to 6.70,–,"CCN1CCN(c2cccc(Nc3ncc(F)c(-c4sc5c(nc(C)n5C(C)C)c4C)n3)n2)CC1 [Example 113, 4-(2,6-Dimethyl-3-propan-2-ylthieno[2,3-d]imidazol-5-yl)-N-[6-(4-ethylpiperazin-1-yl)pyridin-2-yl]-5-fluoropyrimidin-2-amine]"
≥ 7.70,–,"CCN1CCN(C(C)c2ccc(Nc3ncc(F)c(-c4cc5nc(C)n(C(C)C)c5s4)n3)nc2)CC1 (stereo not drawn) [Example 116, N-[5-[1-(4-Ethylpiperazin-1-yl)ethyl]pyridin-2-yl]-5-fluoro-4-(2-methyl-3-propan-2-ylthieno[2,3-d]imidazol-5-yl)pyrimidin-2-amine]"
≥ 7.70,–,"Cc1nc2cc(-c3nc(Nc4ccc(C5C(=O)N(C)CCN5C)cn4)ncc3F)sc2n1C(C)C (stereo not drawn) [Example 117, 3-[6-[[5-Fluoro-4-(2-methyl-3-propan-2-ylthieno[2,3-d]imidazol-5-yl)pyrimidin-2-yl]amino]pyridin-3-yl]-1,4-dimethylpiperazin-2-one]"
5.70 to 6.70,–,"CCN1CCN(c2ccnc(Nc3ncc(F)c(-c4sc5c(nc(C)n5C(C)C)c4C)n3)c2)CC1 [Example 119, 4-(2,6-Dimethyl-3-propan-2-ylthieno[2,3-d]imidazol-5-yl)-N-[4-(4-ethylpiperazin-1-yl)pyridin-2-yl]-5-fluoropyrimidin-2-amine]"
6.70 to 7.70,–,"COc1cnc(Nc2ccc(C3CCN(C)CC3)cn2)nc1-c1cc2nc(C)n(C(C)C)c2s1 [Example 127, 4-(3-Isopropyl-2-methyl-3H-thieno[2,3-d]imidazol-5-yl)-5-methoxy-N-(5-(1-methylpiperidin-4-yl)pyridin-2-yl)pyrimidin-2-amine]"
